Activity calls are given as the source filed them. The rule behind the calls is not given here.
Experiments:
[1] = target: T1, Protein deacetylase HDAC6 (Homo sapiens) (UniProt Q9UBN7); test: Inhibition of full length N-terminal GST-tagged human HDAC6 expressed in baculovirus expression system at 1 uM using ZMAL as substrate incubated for 90 mins by fluorescence assay relative to control
T1 sequence (whole entry): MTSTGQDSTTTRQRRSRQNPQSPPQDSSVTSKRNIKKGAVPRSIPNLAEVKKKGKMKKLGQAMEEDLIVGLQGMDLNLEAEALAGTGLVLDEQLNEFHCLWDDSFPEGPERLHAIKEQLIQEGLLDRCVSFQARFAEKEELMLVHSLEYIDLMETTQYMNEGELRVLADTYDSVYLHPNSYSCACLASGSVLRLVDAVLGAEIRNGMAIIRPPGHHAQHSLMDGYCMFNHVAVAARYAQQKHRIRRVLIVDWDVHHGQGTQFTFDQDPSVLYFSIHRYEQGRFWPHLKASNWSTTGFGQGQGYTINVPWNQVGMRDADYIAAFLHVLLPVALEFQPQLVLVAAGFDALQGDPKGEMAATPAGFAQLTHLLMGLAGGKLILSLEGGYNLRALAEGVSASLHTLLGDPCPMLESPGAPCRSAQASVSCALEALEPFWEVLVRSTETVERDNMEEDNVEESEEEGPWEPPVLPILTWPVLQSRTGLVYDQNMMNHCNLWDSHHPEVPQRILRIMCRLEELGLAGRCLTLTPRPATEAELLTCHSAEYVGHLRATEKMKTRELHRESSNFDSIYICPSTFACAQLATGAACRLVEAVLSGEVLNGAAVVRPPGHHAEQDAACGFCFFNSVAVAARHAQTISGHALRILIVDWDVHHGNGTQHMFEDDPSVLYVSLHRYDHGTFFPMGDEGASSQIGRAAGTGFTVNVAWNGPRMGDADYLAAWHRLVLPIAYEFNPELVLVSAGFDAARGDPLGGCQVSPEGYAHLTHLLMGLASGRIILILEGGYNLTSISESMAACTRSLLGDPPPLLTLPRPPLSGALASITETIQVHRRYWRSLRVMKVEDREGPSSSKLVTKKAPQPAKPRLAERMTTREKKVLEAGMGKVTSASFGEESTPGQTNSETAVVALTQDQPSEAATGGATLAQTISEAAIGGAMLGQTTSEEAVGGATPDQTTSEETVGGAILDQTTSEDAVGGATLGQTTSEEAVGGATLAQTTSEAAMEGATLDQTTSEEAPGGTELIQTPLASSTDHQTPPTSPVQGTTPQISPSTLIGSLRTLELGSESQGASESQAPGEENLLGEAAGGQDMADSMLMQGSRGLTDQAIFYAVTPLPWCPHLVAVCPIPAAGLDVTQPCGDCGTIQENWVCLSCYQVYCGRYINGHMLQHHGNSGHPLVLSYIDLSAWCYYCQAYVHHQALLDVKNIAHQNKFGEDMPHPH

Histone deacetylase 1 [2] = target: T2, Histone deacetylase 1 (Homo sapiens, UniProt Q13547); test: Inhibition of full length C-terminal His/FLAG-tagged human HDAC1 expressed in baculovirus expression system at 1 uM using ZMAL as substrate incubated for 90 mins by fluorescence assay relative to control
T2 sequence (Q13547 whole entry): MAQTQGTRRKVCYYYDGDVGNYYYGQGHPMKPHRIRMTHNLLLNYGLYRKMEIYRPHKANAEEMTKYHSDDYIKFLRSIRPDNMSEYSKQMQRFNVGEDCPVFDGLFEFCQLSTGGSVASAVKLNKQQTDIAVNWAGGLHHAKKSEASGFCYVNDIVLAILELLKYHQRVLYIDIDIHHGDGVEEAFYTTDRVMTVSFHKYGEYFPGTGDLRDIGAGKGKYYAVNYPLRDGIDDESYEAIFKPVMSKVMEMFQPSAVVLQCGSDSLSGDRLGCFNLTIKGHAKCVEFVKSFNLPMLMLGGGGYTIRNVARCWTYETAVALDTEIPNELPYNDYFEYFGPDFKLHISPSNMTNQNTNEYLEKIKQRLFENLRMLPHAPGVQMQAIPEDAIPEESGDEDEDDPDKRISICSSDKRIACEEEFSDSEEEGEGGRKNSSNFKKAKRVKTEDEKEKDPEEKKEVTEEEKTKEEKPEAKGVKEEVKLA

[3] = target: T3, Protein deacetylase HDAC6 (Homo sapiens, UniProt Q9UBN7); test: Inhibition of full length N-terminal GST-tagged human HDAC6 expressed in baculovirus expression system using ZMAL as substrate incubated for 90 mins by fluorescence assay
T3 sequence (Q9UBN7 whole entry): T1 sequence (whole entry)

[4] = Antiproliferative activity against human U266B cells assessed as reduction in cell viability measured after 24 to 48 hrs by alamar blue dye based fluorescence assay; format: functional
[5] = Antiproliferative activity against human TR-146 cells assessed as reduction in cell viability measured after 48 hrs by alamar blue dye based spectrofluorometry; format: functional; conditions: TR146, 48 h
Ca9-22 = test: Antiproliferative activity against human Ca9-22 cells assessed as reduction in cell viability measured after 48 hrs by alamar blue dye based spectrofluorometry; format: functional; conditions: Ca9-22, 48 h
Histone deacetylase 1 [6] = target: T2, Histone deacetylase 1; test: Inhibition of full length C-terminal His/FLAG-tagged human HDAC1 expressed in baculovirus expression system using ZMAL as substrate incubated for 90 mins by fluorescence assay
Homo sapiens = species on record: Homo sapiens; test: Selectivity ratio of IC50 for full length C-terminal His/FLAG-tagged human HDAC1 expressed in baculovirus expression system to IC50 full length N-terminal GST-tagged human HDAC6 expressed in baculovirus expression system
Histone deacetylase 8 = target: T4, Histone deacetylase 8 (Homo sapiens, UniProt Q9BY41); test: Inhibition of human recombinant HDAC8 expressed in Escherichia coli using Fluor de Lys substrate preincubated for 15 mins followed by substrate addition and measured after 60 mins by fluorescence assay
T4 sequence (Q9BY41 whole entry): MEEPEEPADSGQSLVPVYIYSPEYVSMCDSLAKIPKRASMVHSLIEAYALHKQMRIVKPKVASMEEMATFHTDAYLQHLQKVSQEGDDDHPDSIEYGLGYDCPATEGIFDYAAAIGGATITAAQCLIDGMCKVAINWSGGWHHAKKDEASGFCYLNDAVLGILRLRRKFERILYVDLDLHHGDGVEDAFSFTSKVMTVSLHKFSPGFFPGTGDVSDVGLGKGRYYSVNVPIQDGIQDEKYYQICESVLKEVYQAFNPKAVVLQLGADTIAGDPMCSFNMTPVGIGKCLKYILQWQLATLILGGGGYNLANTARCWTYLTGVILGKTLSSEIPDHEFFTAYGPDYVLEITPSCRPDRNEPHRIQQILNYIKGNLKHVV

Histone deacetylase = test: Inhibition of HDAC in human NB-4 cells assessed as effect on histone acetylation at 10 uM measured after 24 to 48 hrs by Western blot analysis; format: cell-based; conditions: nb-4, 10 µM, time 24-48 hrs
OE33 = test: Antiproliferative activity against human OE33 cells assessed as reduction in cell viability measured after 72 hrs by MTT assay; format: functional, cell-based; conditions: OE33, 72 h
NB-4 [7] = test: Cell cycle arrest in human NB-4 cells at 5 to 10 uM measured after 24 to 48 hrs by propidium iodide staining based flow cytometry; format: functional; conditions: dose microM 5-10, time hrs 24-48
KYSE-520 cell line = test: Antiproliferative activity against human KYSE520 cells assessed as reduction in cell viability measured after 48 hrs by alamar blue dye based spectrofluorometry; format: functional; conditions: KYSE-520, 48 h
NB-4 [8] = test: Induction of apoptosis in human NB-4 cells assessed as increase in cleaved PARP expression at 10 uM measured after 24 to 48 hrs by Western blot analysis; format: functional, cell-based; conditions: time hrs 24-48
[9] = target: T1, Protein deacetylase HDAC6 (Homo sapiens); test: Inhibition of HDAC6 in human NB-4 cells assessed as increase in tubulin acetylation at 10 uM measured after 24 to 48 hrs by Western blot analysis; format: cell-based; conditions: time hrs 24-48

| SMILES | inhibition [1] [%] | inhibition (Histone deacetylase 1 [2]) [%] | IC50 [3] [µM] | IC50 (Histone deacetylase 1 [6]) [µM] | Ratio IC50 (Homo sapiens) | IC50 [5] [µM] | IC50 (Ca9-22) [µM] | further results |
| --- | --- | --- | --- | --- | --- | --- | --- | --- |
| CN1CC2(CCN(Cc3ccc(C(=O)NO)s3)CC2)c2cccc(-c3ccccc3)c21 | 51.3 | 6.6 | – | – | – | – | – | – |
| O=C(NO)c1ccc(CNC(=O)N2CCC3(CC2)CN(Cc2ccccc2)c2ccccc23)cc1 | – | – | 0.11 | 3.6 | 33 | > 1000 | 55 | IC50 [4]: 59.4 µM; IC50 (Histone deacetylase 8): 2.48 µM |

Continued, in another order:

| inhibition [1] [%] | inhibition (Histone deacetylase 1 [2]) [%] | IC50 [3] [µM] | IC50 (Histone deacetylase 1 [6]) [µM] | Ratio IC50 (Homo sapiens) | SMILES | IC50 [5] [µM] | IC50 (Ca9-22) [µM] | further results |
| --- | --- | --- | --- | --- | --- | --- | --- | --- |
| 50 | 8.5 | – | – | – | CN1CC2(CCN(Cc3ccc(C(=O)NO)cc3)CC2)c2cccc(-c3ccccc3)c21 | – | – | – |
| – | – | – | – | 95 | CC(C)(C)OC(=O)N1CCC2(CC1)CN(Cc1ccc(C(=O)NO)cc1)c1ccccc12 | – | – | – |
| – | – | 0.227 | 10.2 | 45 | O=C(NO)c1ccc(CC(=O)N2CCC3(CC2)CN(Cc2ccccc2)c2ccccc23)cc1 | 54 | > 1000 | inhibition (INH) (Histone deacetylase): Not Active; IC50 (OE33): 13.8 µM; Activity (NB-4 [7]): Active; IC50 (KYSE-520 cell line): 33.8 µM; Activity (NB-4 [8]): Active; inhibition [9]: Active |
| 29.7 | 2.9 | – | – | – | O=C(NO)c1ccc(CN2CCC3(CC2)CN(Cc2ccccc2)c2c(-c4ccccc4)cccc23)cc1 | – | – | – |

— ChEMBL document CHEMBL4725478, “Spiroindoline-Capped Selective HDAC6 Inhibitors: Design, Synthesis, Structural Analysis, and Biological Evaluation” (ACS Med Chem Lett, 2020)
